# Assay results: ChEMBL document CHEMBL1144272, “Generation of a new class of hNK(2) receptor ligands using the 'fragment approach'” (Bioorg Med Chem Lett, 2005)
# pKi: −log10 of the molar value.
# Biological target: T1, Substance-K receptor (Homo sapiens, UniProt P21452)
# T1 sequence (P21452 whole entry): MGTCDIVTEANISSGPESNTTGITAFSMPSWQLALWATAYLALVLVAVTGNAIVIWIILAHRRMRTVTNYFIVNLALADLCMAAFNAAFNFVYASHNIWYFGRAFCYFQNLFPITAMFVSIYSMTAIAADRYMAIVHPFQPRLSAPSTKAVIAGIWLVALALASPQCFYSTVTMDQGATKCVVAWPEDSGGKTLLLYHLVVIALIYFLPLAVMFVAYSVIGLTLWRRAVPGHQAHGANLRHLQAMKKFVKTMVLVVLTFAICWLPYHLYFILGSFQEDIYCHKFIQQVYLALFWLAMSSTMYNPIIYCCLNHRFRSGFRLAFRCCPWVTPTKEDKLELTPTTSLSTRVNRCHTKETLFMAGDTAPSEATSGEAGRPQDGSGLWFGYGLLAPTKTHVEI
# Assay: Binding affinity for human tachykinin receptor 2 was measured by using [125I]NKA as radio ligand
row,pKi,SMILES
1,< 6.00,O=C(Nc1ccc(OCc2ccccc2)cc1)N[C@@H](Cc1ccccc1)C(=O)NCCCN1CCOCC1 (stereo in doubt; 31a (L))
2,7.00,O=C(Nc1ccc(OCc2ccccc2)cc1)N[C@H](Cc1ccccc1)C(=O)NCCCN1CCOCC1 (stereo in doubt; 31b (D))
3,5.92,O=C(Nc1ccc(OCc2ccccc2)cc1)N[C@@H](Cc1ccccc1)C(=O)NCCCN1CCOCC1 (stereo in doubt; 32a (L))
4,6.20,O=C(Nc1ccc(OCc2ccccc2)cc1)N[C@H](Cc1ccccc1)C(=O)NCCCN1CCOCC1 (stereo in doubt; 32b (D))
